Experimental data: patent publication US5686486A, “4-hydroxy-benzopyran-2-ones and 4-hydroxy-cycloalkyl[b]pyran-2-ones useful to treat retroviral infections” (priority 1995, dated 1997)
Like-named read-outs stand apart in the source and are kept apart here.

How the values were obtained:
HIV-1 protease [1] = biological target: T1, HIV-1 protease (Human immunodeficiency virus type 1 group M subtype B, UniProt P04585); experiment: biochemical; conditions: for inhibition at 10 µM: read-out: HIV-1 Protease % Inhib, dose 10.000 uM; for inhibition at 100 µM: read-out: HIV-1 Protease % Inhib, dose 100.000 uM; for inhibition at 0.123 µM: read-out: HIV-1 Protease % Inhib, dose 0.123 uM; for inhibition at 0.37 µM: read-out: HIV-1 Protease % Inhib, dose 0.370 uM; for inhibition at 1.1 µM: read-out: HIV-1 Protease % Inhib, dose 1.100 uM; for inhibition at 3.3 µM: read-out: HIV-1 Protease % Inhib, dose 3.300 uM; for inhibition at 30 µM: read-out: HIV-1 Protease % Inhib, dose 30.000 uM
Outline: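 Percent inhibition derived from fluorescent cleavage product separated by filtration after streptavidin-bead capture of intact biotin/FITC substrate. Reaction: enzyme (10 μl, 0.1 μM stock) with substrate (20 μl, 0.2 μM stock) and compound, 1 h at room temperature in dark, pH 5.5 acetate buffer with 1.0 M NaCl and 0.05% NP-40.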

HIV-1 protease [2] = biological target: T1, HIV-1 protease; experiment: biochemical
Outline: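 Enzyme (40 nM stock) and substrate (200 μM stock) incubated with inhibitor, 24–48 two-fold serial concentrations, for 90 min at room temperature, then quenched with avidin beads. Nonlinear least-squares analysis gives Ki; a known-Ki inhibitor validates each run.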

Row | SMILES | inhibition at 1 µM (HIV-1 protease [1]; read-out: HIV-1 Protease % Inhib, dose 1.000 uM) [%] | inhibition at 10 µM (HIV-1 protease [1]) [%] | inhibition at 100 µM (HIV-1 protease [1]) [%] | Ki (HIV-1 protease [2]; HIV-1 FITC KI) [nM] | inhibition at 0.123 µM (HIV-1 protease [1]) [%] | inhibition at 0.37 µM (HIV-1 protease [1]) [%] | inhibition at 1.1 µM (HIV-1 protease [1]) [%] | inhibition at 3.3 µM (HIV-1 protease [1]) [%] | inhibition at 30 µM (HIV-1 protease [1]) [%] | Ki (HIV-1 protease [2]; read-out: HIV-1 FITC KI) [nM] | inhibition at 0.41 µM (HIV-1 protease [1]; read-out: HIV-1 Protease % Inhib, dose 0.410 uM) [%] | inhibition at 1.23 µM (HIV-1 protease [1]; read-out: HIV-1 Protease % Inhib, dose 1.230 uM) [%] | inhibition at 3.7 µM (HIV-1 protease [1]; read-out: HIV-1 Protease % Inhib, dose 3.700 uM) [%] | inhibition at 11 µM (HIV-1 protease [1]; read-out: HIV-1 Protease % Inhib, dose 11.000 uM) [%] | inhibition at 33 µM (HIV-1 protease [1]; read-out: HIV-1 Protease % Inhib, dose 33.000 uM) [%]
1 | CCC(c1cccc(C(=O)NC(C(=O)NCc2ccccn2)C(C)CC)c1)c1c(O)c2ccccc2oc1=O (centres unmarked) [Example 149, 3-(1-(4-Hydroxy-2-oxo-2H-chromen-3-yl)-propyl)-N-(2-methyl-1-(pyridin-2-ylmethylcarbomoyl)-butyl)-benzamide] | 28.8 | 99.2 | 97.3 | 405 | – | – | – | – | – | – | – | – | – | – | –
2 | O=C(CCn1ccc2ccccc21)Nc1cccc(C(c2c(O)c3c(oc2=O)CCCCCC3)C2CC2)c1 (centres unmarked) [Example 197, 1H-Indole-1-propanamide, N-[3-[cyclopropyl(5,6,7,8,9,10-hexahydro-4-hydroxy-2-oxo-2H-cycloocta[b]pyran-3-yl)methyl]phenyl]-] | – | 91.8 | – | – | 34 | 65.6 | 76.6 | 88.7 | 89.6 | 14.1 | – | – | – | – | –
3 | O=c1oc2c(c(O)c1C(c1cccc(NS(=O)(=O)c3ccc(S(=O)(=O)c4ccccc4)s3)c1)C1CC1)CCCCCC2 (centres unmarked) [Example 299, N-[3-[Cyclopropyl(5,6,7,8,9,10-hexahydro-4-hydroxy-2-oxo-2H-cycloocta[b]pyran-3-yl)methyl]phenyl]-5-(phenylsulfonyl)-2-thiophenesulfonamide] | – | 104 | – | – | 78.5 | 97.8 | 97.5 | 91.7 | 98.4 | 2.3 | – | – | – | – | –
4 | CCCC1CCCCCc2c1oc(=O)c([C@H](c1ccccc1)C1CC1)c2O (mixture of isomers) [Example 235, 3-(S)-(Cyclopropylphenylmethyl)-4-hydroxy-10-(R and S)-propyl-5,6,7,8,9,10-hexahydro-cycloocta[b]pyran-2-one] | – | 103 | – | – | 24.8 | 71.8 | 92.7 | 105 | 99.5 | 11 | – | – | – | – | –
5 | Cc1nn(C)c(Cl)c1S(=O)(=O)Nc1cccc(C(c2c(O)c3c(oc2=O)CCCCCC3)C2CC2)c1 (centres unmarked) [Example 294, 5-Chloro-N-[3-[cyclopropyl(5,6,7,8,9,10-hexahydro-4-hydroxy-2-oxo-2H-cycloocta[b]pyran-3-yl)methyl]phenyl]-1,3-dimethyl-1H-pyrazole-4-sulfonamide] | – | 94.7 | – | – | – | 20.9 | 52.9 | 81.1 | 110 | 139 | – | – | – | – | –
6 | O=C(Nc1cccc(S(=O)(=O)Nc2cccc(C(c3c(O)c4c(oc3=O)CCCCCC4)C3CC3)c2)c1)c1ccccc1 (centres unmarked) [Example 351, N-[3-[[[3-[Cyclopropyl(5,6,7,8,9,10-hexahydro4-hydroxy-2-oxo-2H-cycloocta[b]pyran-3-yl)methyl]phenyl]amino]sulfonyl]phenyl]-benzamide] | – | 97.8 | – | – | 11.2 | 49.3 | 76.6 | 93.9 | 95.8 | 16.4 | – | – | – | – | –
7 | O=C(Cc1ccccc1)Nc1cccc(C(c2c(O)c3c(oc2=O)CCCCCC3)C2CC2)c1 (centres unmarked) [Example 207, N-[3-[Cyclopropyl(5,6,7,8,9,10-hexahydro-4-hydroxy-2-oxo-2H-cycloocta[b]pyran-3-yl)methyl]phenyl]-benzacetamide] | – | 83 | – | – | 14 | 44.1 | 74 | 93.8 | 78.7 | 33.4 | – | – | – | – | –
8 | COc1ccc2c(O)c(C(c3cccc(NC(=O)CCNC(=O)OC(C)(C)C)c3)C3CC3)c(=O)oc2c1 (centres unmarked) [Example 167, Carbamic acid, [3-[[3-[cyclopropyl(4-hydroxy-7-methoxy-2-oxo-2H-1-benzopyran-3-yl)methyl]phenyl]amino]-3-oxopropyl]-, 1,1-dimethylethyl ester] | – | – | 116 | 28 | – | – | – | – | – | – | 83.2 | 99.5 | 113 | 114 | 114
9 | O=c1oc2c(c(O)c1C(c1cccc(NS(=O)(=O)c3ccc(Cl)s3)c1)C1CC1)CCCCCC2 (centres unmarked) [Example 301, 5-Chloro-N-[3-[cyclopropyl(5,6,7,8,9,10-hexahydro-4-hydroxy-2-oxo-2H-cycloocta[b]pyran-3-yl)methyl]phenyl]-2-thiophenesulfonamide] | – | 104 | – | – | 74.7 | 91.2 | 102 | 100 | 114 | 4.8 | – | – | – | – | –
